In PMC9772100 (ACS chemical biology, 2022):
Read-outs that look alike come from different tables or passages of the source.

T1: PfHGXPRT (Plasmodium falciparum, UniProt P20035)
T1 sequence (P20035 1-231): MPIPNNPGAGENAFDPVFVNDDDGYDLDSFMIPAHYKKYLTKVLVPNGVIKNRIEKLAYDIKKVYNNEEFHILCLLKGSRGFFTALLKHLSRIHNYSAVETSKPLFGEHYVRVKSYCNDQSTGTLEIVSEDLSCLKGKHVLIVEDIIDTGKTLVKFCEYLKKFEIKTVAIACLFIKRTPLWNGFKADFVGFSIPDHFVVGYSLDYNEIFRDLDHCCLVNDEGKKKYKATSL


Legend:
PfHGXPRT = target: T1, PfHGXPRT; assay: PfHGXPRT steady-state kinetics; assay type: biochemical
[1] = substrate: O=c1[nH]cnc2nc[nH]c12; assay: purified protein, by the assay type; settings: other: unactivated enzyme; pH 7.4

| Molecule | Km (PfHGXPRT; read-out: Km, activated PfHGXPRT, substrate-activated enzyme) | Km (PfHGXPRT; read-out: Km, unactivated PfHGXPRT, unactivated enzyme) | Km [1] |
| --- | --- | --- | --- |
| O=P(O)(O)OC[C@H]1O[C@H](OP(=O)(O)OP(=O)(O)O)[C@H](O)[C@@H]1O [PRPP, 5-phospho-α-D-ribosyl 1-pyrophosphate] | 185 ± 14 µM | 55 ± 11 µM | – |
| PfHGXPRT (Plasmodium falciparum FCR-3/Gambia) (protein) MPIPNNPGAGENAFDPVFVNDDDGYDLDSFMIPAHYKKYLTKVLVPNGVIKNRIEKLAYDIKKVYNNEEFHILCLLKGSRGFFTALLKHLSRIHNYSAVETSKPLFGEHYVRVKSYCNDQSTGTLEIVSEDLSCLKGKHVLIVEDIIDTGKTLVKFCEYLKKFEIKTVAIACLFIKRTPLWNGFKADFVGFSIPDHFVVGYSLDYNEIFRDLDHCCLVNDEGKKKYKATSL | – | – | 2.7 ± 0.3 µM |
